Test: T1 relaxation of Gd lipids in aqueous solution (MRI efficacy)
Type: physicochemical
Settings: 0.5 mM, 4.7 T
Method: In order to establish the relaxation properties of Gd.DOTA.DSA, MRI studies of the lipid in aqueous solution were performed and T1 values and relaxivity parameters generated in milliseconds. […] A standard T1 saturation recovery method (spin echo sequence) was used to determine T1 values (according to Eq. 1), where x is TR (time to repeat), and Si is the measured signal for a given TR. Si=S0(1−e^(−x/T^1^))
MRI Analysis of Gd.DOTA.DSA For T1 analysis, Gd.DOTA.DSA 4, Gd.DTPA.BSA, and controls of the metal free compound, and Magnevist (Schering A G, Germany) were added to water to give a final concentration of 0.5 mM. The solutions (200 μL) were placed in eppendorf tubes and T1 relaxation values measured on a 4.7 T Varian MR scanner at ambient temperature. For relaxivity measurements; gadolinium liposome formulations were prepared in order to obtain five different gadolinium concentrations between […] in 200 μL of distilled water and the molar relaxivity r1 (mM^−1 s^−1) determined. T1 values were obtained using saturation recovery experiments performed with a standard spin-echo sequence and a 2 mm single slice acquisition (TR=50, 100, 200, 300, 500, 700, 1200, 3000, 5000, 7000 ms, TE=15 ms), number of signal averages; 2, FOV; 70×70 mm^2, collected into a matrix of 256×128.

- T1 relaxation compared to Gd.DTPA.BSA lipid: comparable, if slightly better
- efficacy compared to Magnevist and Gd.DTPA.BSA (T1 values) (lipid in aqueous solution, clinically relevant dose): compare favourably
Substance: Gadolinium (III) 2-{4,7-Bis-Carboxymethyl-10-[(N, N-Distearylamidomethyl-N′-Amido-Methyl]-1,4,7,10-Tetra-Azacyclododec-1-yl}-Acetic Acid [Gd.DOTA.DSA]
